Data as given in paper PMC7400577 (Scientific Reports, 2020).
Several values for one entry are separate records, joined by “and”; a condition that tells them apart may be missing. Identical values can stand only once. Like-named read-outs stand apart in the source and are kept apart here.

Tests used:
hBGT1 [1] = molecular target: T1, hBGT1 (Homo sapiens, UniProt P48065); assay: FLIPR Membrane Potential (FMP) assay at hBGT1 stably expressed in CHO Flp-In cells; format: cell-based; details: for substrate character at hBGT1 in FMP assay: concentration-dependent increase in fluorescence signal; for Mean Rmax as % of GABA Rmax ± S.E.M. / EC50: hBGT1 stably expressed in CHO Flp-In cells; for Mean Rmax as % of GABA Rmax ± S.E.M.: FMP assay; for EC50: three independent experiments
T1 construct: expressed in transfected cells
T1 sequence (P48065 1-614): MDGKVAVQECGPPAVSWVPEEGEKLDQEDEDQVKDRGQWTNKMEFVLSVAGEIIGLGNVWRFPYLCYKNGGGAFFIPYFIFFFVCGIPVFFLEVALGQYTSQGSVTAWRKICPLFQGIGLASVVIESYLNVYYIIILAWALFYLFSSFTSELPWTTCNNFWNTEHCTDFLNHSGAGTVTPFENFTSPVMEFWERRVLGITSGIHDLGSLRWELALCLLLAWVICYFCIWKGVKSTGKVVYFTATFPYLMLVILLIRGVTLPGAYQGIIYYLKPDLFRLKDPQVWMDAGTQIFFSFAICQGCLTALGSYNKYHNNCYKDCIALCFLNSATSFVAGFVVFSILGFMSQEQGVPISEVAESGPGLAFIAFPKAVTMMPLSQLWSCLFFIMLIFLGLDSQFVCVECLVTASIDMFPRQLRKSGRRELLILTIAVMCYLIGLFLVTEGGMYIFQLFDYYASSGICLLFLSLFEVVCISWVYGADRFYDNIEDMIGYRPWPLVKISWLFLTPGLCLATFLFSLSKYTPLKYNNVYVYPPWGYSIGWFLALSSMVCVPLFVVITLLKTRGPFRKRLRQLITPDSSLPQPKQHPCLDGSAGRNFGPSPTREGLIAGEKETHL
Procedure: The fluorescence-based FMP assay was performed as previously described, for the functional characterization of the electrogenic transport of substrates via hBGT1. Briefly, CHO Flp-In cells stably expressing hBGT1 or hGAT1 were plated (~ 50,000 cells/well) into black PDL-coated 96-well plates with clear bottom (VWR, Radnor, PA, USA). The next day, the growth medium was removed, and cells were washed once with HBSS assay buffer and FMP Blue Dye (Molecular Devices, Crawley, UK), added, and incubated. Ligands were added via the NOVOStar plate reader (BMG Labtech GmbH, Offenburg, Germany), preheated to 37 °C, approximately 10 min before reading of the cell plate. The fluorescence signals were measured for 33.8 s upon ligand addition using an emission and excitation wavelength of […], respectively. Electrogenic transport of substrates via hBGT1 will lead to an influx of the negatively charged FMP Blue dye that will bind to intracellular proteins and lipids resulting in an increase in the fluorescence signal.
(§1) Data analysis and statistical evaluation were performed in GraphPad Prism 7.02 (GraphPad Software, San Diego, CA, USA). Concentration-uptake inhibition curves, generated from the radioligand-based uptake assays, were fitted by non-linear regression, using the equation for sigmoidal concentration–response with variable slope: Y = Bottom + (Top–Bottom)/(1 + 10^((logIC50 − X) × HillSlope)), where Y is the response, X is the logarithm of the concentration, Top and Bottom are the plateaus in same units as Y, logIC50 is the concentration giving a response halfway between Bottom and Top, and the HillSlope is the steepness of the curve. For the substrate concentration–response curves generated from the FMP assay, the same equation was used but with logEC50 instead for logIC50. Unless otherwise stated, data are presented as means ± S.E.M. of at least three independent pooled experiments performed in triplicates.

hBGT1 [2] = molecular target: T1, hBGT1; format: cell-based; details: for IC50: 30 nM [3H]GABA, 3 min, CHO Flp-In cells stably expressing hBGT1; for subtype-selectivity for hBGT1 over the other hGATs: estimated from [3H]GABA uptake IC50 values; for subtype-selectivity for hBGT1 over the other hGATs / decrease of hBGT1 inhibitory potency compared to ATPCA: CHO Flp-In cells; for decrease of hBGT1 inhibitory potency compared to ATPCA: [3H]GABA uptake
Procedure: (§2) CHO Flp-In and tsA201 cells were cultured at 37 °C in a humidified atmosphere of […] and 5% CO2. As previously described[38],[63], CHO Flp-In cells stably expressing the hGATs were cultured in Ham’s F12 Nutrient Mix supplemented with 10% FBS, 1% P/S and plasmocin (5 µg/mL) under the selection pressure of hygromycin B (200 µg/mL). DMEM with GlutaMAX-I supplemented with 10% FBS and 1% P/S was used as growth medium for the tsA201 cells, which were transfected with DNA constructs using PolyFect according to the manufacturer’s specifications (Qiagen, West Sussex, UK), but with half of the recommended reagent volumes.
(§3) Uptake assays were performed in PDL-coated white 96-well polystyrene cell culture microplates (PerkinElmer, Boston, MA, USA) as previously described[38],[63]. […] Assay buffer was HBSS supplemented with 20 mM HEPES, 1 mM CaCl2 and 1 mM MgCl2, pH 7.4. […] After termination, scintillation liquid (MicroScint-20, PerkinElmer) was added and the radioactivity measured in a TopCount NXT Microplate Scintillation Counter (PerkinElmer).
as §1

hGAT3 [3] = molecular target: T2, hGAT3 (Homo sapiens, UniProt P48066); assay: [3H]GABA uptake inhibition at hGAT3 stably expressed in CHO Flp-In cells; format: cell-based; details: 30 nM [3H]GABA, 3 min, CHO Flp-In cells stably expressing hGAT3; read-out: IC50 hGAT3
T2 construct: expressed in transfected cells
T2 sequence (P48066 1-632): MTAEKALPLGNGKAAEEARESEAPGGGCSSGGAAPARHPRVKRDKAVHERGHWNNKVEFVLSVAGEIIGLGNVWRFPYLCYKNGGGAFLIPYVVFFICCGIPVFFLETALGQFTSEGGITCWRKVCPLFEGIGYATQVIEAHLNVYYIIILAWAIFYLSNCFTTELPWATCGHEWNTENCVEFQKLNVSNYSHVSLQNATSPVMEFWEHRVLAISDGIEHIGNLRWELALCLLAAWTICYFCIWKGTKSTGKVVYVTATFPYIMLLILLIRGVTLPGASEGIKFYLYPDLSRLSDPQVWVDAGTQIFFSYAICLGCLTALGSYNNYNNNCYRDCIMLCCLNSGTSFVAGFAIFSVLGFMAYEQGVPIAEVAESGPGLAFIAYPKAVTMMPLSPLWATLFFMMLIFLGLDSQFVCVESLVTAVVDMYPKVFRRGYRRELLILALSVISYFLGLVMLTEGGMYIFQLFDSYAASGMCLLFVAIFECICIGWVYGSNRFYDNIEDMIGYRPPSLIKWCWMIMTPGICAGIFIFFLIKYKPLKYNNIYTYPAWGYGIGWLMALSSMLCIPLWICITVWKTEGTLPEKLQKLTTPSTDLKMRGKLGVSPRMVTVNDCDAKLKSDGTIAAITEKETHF
Procedure: as §2, §3, §1

hBGT1 [4] = molecular target: T1, hBGT1; details: [3H]GABA uptake, recombinant hBGT1; adapted from Al-Khawaja et al.; cited from earlier work
hGAT3 [5] = molecular target: T2, hGAT3; details: [3H]GABA uptake, recombinant hGAT3; adapted from Al-Khawaja et al.; cited from earlier work
[6] = read-out: pIC50 ± S.E.M. hBGT1 (converted)

C[C@@H]1N=C(N)NC[C@@H]1C(=O)O (single isomer, unassigned) [l-15a]
substrate character at hBGT1 in FMP assay (hBGT1 [1]): substrates for hBGT1
Mean Rmax as % of GABA Rmax ± S.E.M. (hBGT1 [1]): 36 ± 2.9 % of GABA Rmax
EC50 (hBGT1 [1]): 40 µM
IC50 (hBGT1 [2]; read-out: IC50 hBGT1): < 100 µM
IC50 (hBGT1 [2]; [6]): 33.9 µM
subtype-selectivity for hBGT1 over the other hGATs (hBGT1 [2]): ≥ 29 times
IC50 (hGAT3 [3]): > 1000 µM

NC1=NCC(C(=O)O)CN1 (stereo not shown) [ATPCA, 2-amino-1,4,5,6-tetrahydropyrimidine-5-carboxylic acid, reference compound]
IC50 (hBGT1 [4]): 2.5 µM
pIC50 ± S.E.M. hBGT1 (hBGT1 [4]): 5.60 ± 0.11
IC50 (hGAT3 [5]): 99 µM
pIC50 ± S.E.M. hGAT3 (hGAT3 [5]): 4.00 ± 0.03

NC1=NCC(C(=O)O)CC1 (stereo not shown) [compound 2, 6-amino-2,3,4,5-tetrahydropyridine-3-carboxylic acid, reference compound]
substrate character at hBGT1 in FMP assay (hBGT1 [1]): substrates for hBGT1
Mean Rmax as % of GABA Rmax ± S.E.M. (hBGT1 [1]): 103 ± 3.9 % of GABA Rmax and 76 ± 2.7 % of GABA Rmax
IC50 (hBGT1 [2]; read-out: IC50 hBGT1): < 100 µM
IC50 (hBGT1 [2]; [6]): 12.9 µM
decrease of hBGT1 inhibitory potency compared to ATPCA (hBGT1 [2]): fivefold
IC50 (hBGT1 [4]): 9.8 µM
IC50 (hGAT3 [3]): > 1000 µM

CCN1CC(C(=O)O)CN=C1N.Cl (stereo not shown) [compound 3]
substrate character at hBGT1 in FMP assay (hBGT1 [1]): substrates for hBGT1
IC50 (hBGT1 [2]; read-out: IC50 hBGT1): 86 µM
decrease of hBGT1 inhibitory potency compared to ATPCA (hBGT1 [2]): 20–65 fold and 34 fold
subtype-selectivity for hBGT1 over the other hGATs (hBGT1 [2]): at least 12 times
IC50 (hGAT3 [3]): > 1000 µM

Cl.NC1=NCC(C(=O)O)CN1Cc1ccccc1 (stereo not shown) [compound 4]
IC50 (hBGT1 [2]; read-out: IC50 hBGT1): 163 µM
decrease of hBGT1 inhibitory potency compared to ATPCA (hBGT1 [2]): 20–65 fold
IC50 (hGAT3 [3]): 117 µM

NC1=NC=C(C(=O)O)CN1.O=C(O)C(F)(F)F [compound 11]
substrate character at hBGT1 in FMP assay (hBGT1 [1]): substrates for hBGT1
Mean Rmax as % of GABA Rmax ± S.E.M. (hBGT1 [1]): 95 ± 4.0 % of GABA Rmax
EC50 (hBGT1 [1]): 75 µM
IC50 (hBGT1 [2]; read-out: IC50 hBGT1): 48 µM
IC50 (hBGT1 [2]; [6]): 46.8 µM
decrease of hBGT1 inhibitory potency compared to ATPCA (hBGT1 [2]): 19 fold
subtype-selectivity for hBGT1 over the other hGATs (hBGT1 [2]): ≥ 21 times
IC50 (hGAT3 [3]): > 1000 µM
